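Interpolation was linear, between the two tested concentrations surrounding the appropriate level; five concentrations were tested over 48 hours in 96-well plates. TGI: total growth inhibition.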

Among the test systems are HS 578T breast; SW-620 colon; OVCAR-5 ovarian; HOP-62 NSCLC; UO-31 renal; T-47D breast; UACC-62 melanoma; A549 NSCLC; MDA-N; SK-MEL-28 melanoma; U251 CNS; KM12 colon; HOP-92 NSCLC; SF-268 CNS; MDA-MB-231 breast; CCRF-CEM leukemia; SNB-19 CNS; SF-295 CNS; M14 melanoma; HL-60(TB) leukemia.
Experiment in all cases: NCI tumour cell line growth inhibition, 48 h

Regarding `CC(C)(C)c1cc(C(=O)/C=C/c2c(Cl)cccc2Cl)cc(C(C)(C)C)c1O`, the TGI is over 84 µM in the assay with HS 578T breast; 36.2 µM in the assay with SW-620 colon; 35 µM with OVCAR-5 ovarian; over 54.8 µM in the assay with HOP-62 NSCLC; 28.1 µM in the assay on UO-31 renal; 18 µM with T-47D breast. The TGI with UACC-62 melanoma was 30.3 µM; with A549 NSCLC, over 100 µM; with MDA-N, over 68.3 µM; in the assay on SK-MEL-28 melanoma, 41.3 µM; with U251 CNS, 24.5 µM; with KM12 colon, 36.8 µM. Besides, the TGI is over 95.7 µM in the assay on HOP-92 NSCLC; over 58.9 µM in the assay with SF-268 CNS; 41.6 µM in the assay with MDA-MB-231 breast; 22 µM with CCRF-CEM leukemia; 29.7 µM in the assay on SNB-19 CNS; 42.2 µM in the assay with SF-295 CNS. Further, the figures for the TGI with M14 melanoma and in the assay with HL-60(TB) leukemia were 54.7 µM and 25.9 µM, respectively.
Take `C1=CC2C=CC(C=C1)P2c1ccccc1` (stereo not given): the TGI in the assay on HS 578T breast, with SW-620 colon, in the assay with OVCAR-5 ovarian, in the assay with HOP-62 NSCLC, in the assay on UO-31 renal and in the assay on T-47D breast was over 100 µM in each case. In addition, the TGI with UACC-62 melanoma, in the assay on A549 NSCLC, with MDA-N, in the assay with SK-MEL-28 melanoma, in the assay on U251 CNS and with KM12 colon was over 100 µM each time. In addition, the TGI with HOP-92 NSCLC, in the assay with SF-268 CNS, in the assay on MDA-MB-231 breast, in the assay on CCRF-CEM leukemia, with SNB-19 CNS and in the assay on SF-295 CNS was over 100 µM in each case. The TGI in the assay on M14 melanoma and with HL-60(TB) leukemia was over 100 µM throughout.
As to `O=C1N(C2CCCCC2)C(=O)N1C1CCCCC1`, the TGI was found to be 2.93 µM with HS 578T breast; 26.4 µM with SW-620 colon; 30.2 µM in the assay with OVCAR-5 ovarian; 31.5 µM in the assay on HOP-62 NSCLC; 0.199 µM in the assay with UO-31 renal; 17.4 µM in the assay with T-47D breast. Besides, the TGI with UACC-62 melanoma was 1.9 µM; in the assay on A549 NSCLC it was over 54.5 µM; in the assay on MDA-N, 17 µM; in the assay with SK-MEL-28 melanoma it was 20.7 µM; in the assay with U251 CNS it was 18.7 µM; in the assay with KM12 colon, 15.7 µM. Further, the TGI with HOP-92 NSCLC was determined as 19.5 µM; in the assay on SF-268 CNS, 40.2 µM; in the assay on MDA-MB-231 breast it was 15.6 µM; in the assay on CCRF-CEM leukemia, 2.07 µM; in the assay with SNB-19 CNS, 29.9 µM; with SF-295 CNS, 14.3 µM. In addition, the TGI in the assay on M14 melanoma turned out to be 20.7 µM; with HL-60(TB) leukemia it was 0.365 µM.
Regarding `CN1CCc2cc3c(c4c2C1C(O)c1ccccc1-4)OCO3` (stereo not given), the TGI with HS 578T breast is 19.5 µM; in the assay with SW-620 colon it was over 100 µM; with OVCAR-5 ovarian it was 44.4 µM; with HOP-62 NSCLC it was 18.6 µM; in the assay with UO-31 renal it was 34 µM; in the assay on T-47D breast, over 100 µM. Moreover, the TGI is 25.9 µM in the assay on UACC-62 melanoma; 52.1 µM in the assay with A549 NSCLC; 16.1 µM with MDA-N; 85.7 µM with SK-MEL-28 melanoma; 25.6 µM in the assay on U251 CNS; 24 µM in the assay on KM12 colon. Further, the TGI is 7.22 µM in the assay with HOP-92 NSCLC; 27.7 µM in the assay with SF-268 CNS; 22.5 µM in the assay on MDA-MB-231 breast; 9.69 µM with CCRF-CEM leukemia; over 100 µM in the assay with SNB-19 CNS; 21.1 µM in the assay with SF-295 CNS. Moreover, the results for the TGI in the assay with M14 melanoma and in the assay with HL-60(TB) leukemia were 19.5 µM and 5.06 µM, respectively.
Take `C=C1C[C@@H]2CC[C@@]34CC5O[C@H]6C(O[C@H]7CC[C@H](CC(=O)O[C@@H]8[C@@H](C)[C@@H]9O[C@@H]%10C[C@]%11(C[C@@H]%12O[C@]%13(C[C@H](C)[C@@H]%14O[C@@H]%15CC(C(O)CO)O[C@@H]%15C[C@@H]%14O%13)C[C@H](C)[C@@H]%12O%11)O[C@@H]%10C[C@@H]9O[C@H]8CC8O[C@@H](CC[C@@H]1O2)C[C@@H](C)C8(O)CO)O[C@@H]7[C@@H]6O3)[C@H]5O4` (stereo not given in full): the TGI was over 0.815 µM with HS 578T breast; over 1 µM in the assay on SW-620 colon; over 1 µM in the assay with OVCAR-5 ovarian; over 1 µM with HOP-62 NSCLC; over 1 µM with UO-31 renal; over 1 µM in the assay on T-47D breast. Further, the TGI in the assay with UACC-62 melanoma, in the assay on A549 NSCLC, with MDA-N, in the assay with SK-MEL-28 melanoma, in the assay with U251 CNS and in the assay on KM12 colon was over 1 µM in each case. Further, the TGI in the assay with HOP-92 NSCLC, in the assay on SF-268 CNS, in the assay on MDA-MB-231 breast, in the assay on CCRF-CEM leukemia, with SNB-19 CNS and in the assay with SF-295 CNS was over 1 µM in each case. Further, the TGI with M14 melanoma and in the assay on HL-60(TB) leukemia was over 1 µM throughout.
For `C=Cc1nc2c(Cl)ncnc2n1Cc1ccccc1`, the TGI amounted to 50.4 µM with HS 578T breast; 23.2 µM with SW-620 colon; 30.5 µM in the assay with OVCAR-5 ovarian; 20.1 µM with HOP-62 NSCLC; 6.02 µM in the assay on UO-31 renal; 6.75 µM in the assay with T-47D breast. Moreover, the TGI in the assay on UACC-62 melanoma was 19.8 µM; in the assay on A549 NSCLC it was 29.1 µM; in the assay with MDA-N it was 13.6 µM; in the assay on SK-MEL-28 melanoma, 11.3 µM; in the assay with U251 CNS, 22.6 µM; with KM12 colon it was 11.5 µM. Moreover, the TGI was 4.66 µM in the assay with HOP-92 NSCLC; 22.9 µM in the assay with SF-268 CNS; 19.1 µM in the assay with MDA-MB-231 breast; over 100 µM in the assay with CCRF-CEM leukemia; 31.5 µM in the assay with SNB-19 CNS; 32.2 µM with SF-295 CNS. For the same compound, the values for the TGI in the assay on M14 melanoma and in the assay with HL-60(TB) leukemia were 15.7 µM and 9.17 µM, respectively.
Turning to `O=C(C1OC1c1ccc(Cl)cc1)C12CC3CC(CC(C3)C1)C2` (stereo not given), the TGI in the assay on HS 578T breast is 73.9 µM; in the assay with SW-620 colon, 44.6 µM; with OVCAR-5 ovarian, 50.8 µM; with HOP-62 NSCLC, 56.5 µM; in the assay with UO-31 renal, 41.9 µM; in the assay with T-47D breast, over 100 µM. Besides, the TGI came out at 45.1 µM in the assay with UACC-62 melanoma; 48.5 µM with A549 NSCLC; 36.6 µM with MDA-N; 32.5 µM in the assay with SK-MEL-28 melanoma; 29.2 µM with U251 CNS; 41 µM in the assay on KM12 colon. Moreover, the TGI was 39 µM with HOP-92 NSCLC; 53 µM in the assay on SF-268 CNS; 54.8 µM in the assay on MDA-MB-231 breast; 52.3 µM in the assay on CCRF-CEM leukemia; over 100 µM in the assay on SNB-19 CNS; 58.6 µM with SF-295 CNS. The TGI amounted to 38.1 µM with M14 melanoma and 42.6 µM in the assay with HL-60(TB) leukemia.
As to `O=C(OCc1ccccc1)N(CCCCN(CCCNC(=O)C(F)(F)F)C(=O)OCc1ccccc1)CCCNC(=O)C(F)(F)F`, the TGI in the assay with HS 578T breast, in the assay on SW-620 colon, with OVCAR-5 ovarian, in the assay on HOP-62 NSCLC, in the assay on UO-31 renal and in the assay on T-47D breast was over 100 µM in each case. Besides, the TGI with UACC-62 melanoma, in the assay on A549 NSCLC, in the assay on MDA-N, in the assay with SK-MEL-28 melanoma, with U251 CNS and in the assay with KM12 colon was over 100 µM in each case. Further, the TGI in the assay on HOP-92 NSCLC, with SF-268 CNS, in the assay on MDA-MB-231 breast, with CCRF-CEM leukemia, in the assay with SNB-19 CNS and in the assay with SF-295 CNS was over 100 µM throughout. For the same compound, the TGI in the assay on M14 melanoma and in the assay with HL-60(TB) leukemia was over 100 µM in each case.
As to `COc1ccccc1CCN1CCN(CCCc2ccccc2)CC1`, the TGI with HS 578T breast, with SW-620 colon, with OVCAR-5 ovarian, in the assay on HOP-62 NSCLC, with UO-31 renal and in the assay on T-47D breast was over 100 µM each time. Further, the TGI with UACC-62 melanoma, in the assay with A549 NSCLC, in the assay on MDA-N, with SK-MEL-28 melanoma, in the assay on U251 CNS and in the assay with KM12 colon was over 100 µM each time. For the same compound, the TGI is 23.2 µM in the assay on HOP-92 NSCLC; over 100 µM with SF-268 CNS; over 100 µM in the assay on MDA-MB-231 breast; over 100 µM in the assay on CCRF-CEM leukemia; over 100 µM with SNB-19 CNS; over 100 µM in the assay on SF-295 CNS. Further, the TGI was 76.4 µM with M14 melanoma and over 100 µM with HL-60(TB) leukemia.
As for `O=C(NC(=S)Nc1ccc(Br)cc1)c1ccc2c(c1)Sc1ccccc1S2`, the TGI was 59.7 µM in the assay on HS 578T breast; over 100 µM in the assay with SW-620 colon; 40.2 µM in the assay on OVCAR-5 ovarian; 31 µM in the assay on HOP-62 NSCLC; 26.6 µM in the assay on UO-31 renal; 33.4 µM in the assay with T-47D breast. Further, the TGI is 74.8 µM in the assay with UACC-62 melanoma; 48.6 µM with A549 NSCLC; over 100 µM in the assay with MDA-N; over 100 µM with SK-MEL-28 melanoma; 35 µM in the assay with U251 CNS; 74.8 µM in the assay with KM12 colon. Also, the TGI in the assay with HOP-92 NSCLC turned out to be 32.5 µM; in the assay with SF-268 CNS it was 46.4 µM; in the assay with MDA-MB-231 breast, 38.2 µM; in the assay on CCRF-CEM leukemia, 54.1 µM; in the assay on SNB-19 CNS, 54.4 µM; in the assay with SF-295 CNS, 38.6 µM. Moreover, the TGI with M14 melanoma amounted to 42.9 µM; in the assay on HL-60(TB) leukemia, 42.7 µM.
